Measurements published in US20140065610A1, “METHOD FOR PREDICTING CLINICAL BENEFIT IN THE TREATMENT OF NEURODEVELOPMENTAL, NEUROLOGICAL OR NEUROPSYCHIATRIC DISORDERS” (priority 2011, published 2014).

Legend:
Format in all cases: in vivo, human
[1] = test system: adults with schizophrenia with predominantly negative symptoms; assay: Phase II GRI schizophrenia trial: change of PANSS negative symptom factor score from baseline
Procedure: FIG. 2: Change of PANSS negative symptom factor score from baseline in all patients (FIG. 2(a)) and in CFHR1-low patients (FIG. 2(b)) and CFHR1-high patients (FIG. 2(c)) using natural cutoff for CFHR1. Patients with serum concentration ≦28 ug/ml were classified as CFHR1-low and patients with serum concentration >28 ug/ml were classified as CFHR1-high. Estimates of expected response and standard error bars from MMRM analysis. Dash-dot line and circle Placebo; solid line and squares 10 mg GRI; solid line and upward-pointing triangles 30 mg GRI; dashed line and diamonds 60 mg GRI.
(§1) A Phase II study was performed in adults with schizophrenia with predominantly negative symptoms. The individuals were clinically stable and on stable treatment with second generation antipsychotics. The study was conducted at multiple sites in Brazil, France, Germany, Hungary, Japan, Mexico, Poland, Russia, and the US according to ICH Guidelines for Good Clinical Practice (ClinicalTrials.gov Identifier: NCT00616798). The study protocol was approved by the health authorities of each country and the respective ethic committees of each site. All 323 patients had provided written consent to participate in the study and 224 patients had consented to the collection and use of serum samples for exploratory biomarker analysis. After a screening and a 4-week run-in period, patients were randomized to double-blind adjunctive treatment with placebo, 10 mg, 30 mg, or 60 mg of GRI given once a day for a duration of 8 weeks, followed by 4 week follow-up period. Similar percentages of patients in the four treatment arms completed the study.
(§2) Patients were assessed at screening, week −2, baseline, weeks 1, 2, 4, 6, 8, 10 and 12. Assessments included the PANSS, Clinical Global Impression—Severity of Illness (CGI-S) and Clinical Global Impression-Global Improvement (CGI-I) for overall psychopathology 56, CGI-S and CGI-I of Negative Symptoms (CGI-S-N, CGI-I-N) for assessment of negative symptoms only 57, and standard examinations of extrapyramidal symptoms (BAS58, SAS59, AIMS60). The primary efficacy variable assessing effects on negative symptoms was the change from baseline in the PANSS negative symptom factor score 64. Secondary efficacy variables were i) proportion of patients showing a clinical response in negative symptom defined as a 20% change from baseline in the PANSS negative symptom factor score and ii) CGI-I-N. Additional analyses included change in PANSS total score, remaining PANSS factor scores 64 CGI-S and CGI-I.
Results for the overall patient cohort are shown in the top panel, for the CFHR1-low patients in the middle panel and for the CFHR1-high patients in the lower panel. […]

[2] = test system: adults with schizophrenia with predominantly negative symptoms; assay: Phase II GRI schizophrenia trial: PANSS negative symptom factor score responder rate; conditions: after 8 weeks
Procedure: FIG. 3: Response rates of dichotomized PANSS negative symptom factor score (response defined as ≧20% drop from baseline) at week 8. Shaded background bars are response rates in overall per protocol population. Solid grey bars are response rates in CFHR1 stratified subpopulations using natural cut-off for CFHR1.
as §1, §2
For the 10 mg arm the response rate in the CFHR1-high group was 88% compared to 69% in the non-stratified group, and for the 30 mg arm the response rate in the CFHR1-high group was 78% compared to 66% in the non-stratified group.

[3] = test system: adults with schizophrenia with predominantly negative symptoms; assay: Phase II GRI schizophrenia trial: CGI-I negative symptoms responder rate
Excerpt: FIG. 4: Response rates of dichotomized CGI-I negative symptoms rating score (response defined as “much improved” or “very much improved”) at week 8. Shaded background bars are response rates in overall per protocol population. Solid grey bars are response rates in CFHR1 stratified subpopulations using natural cut-off for CFHR1.
FIG. 6: Response rates of dichotomized CGI-I negative symptoms rating score (response defined as “much improved” or “very much improved”) at week 8. Shaded background bars are response rates in overall per protocol population. Solid grey bars are response rates in CFHR1 stratified subpopulations using CFHR1/CFH ratio, with L (low) corresponding to CFHR1/CFH ratio below 0.01, M (medium) corresponding to CFHR1/CFH ratio above 0.01 and below 0.08 and with H (high) corresponding to CFHR1/CFH ratio above 0.08.
FIG. 9: Response rates of dichotomized CGI-I negative symptoms rating score (response defined as “much improved” or “very much improved”) at week 8. Shaded background bars are response rates in overall per protocol population from those who had consented for DNA sample. Solid grey bars are response rates in CFHR1 stratified subpopulations using genetic status of CFHR1 allele.
as §1, §2
As a secondary endpoint in the clinical trial the Clinical Global Impression (CGI) improvement of negative symptoms between baseline and week 8 evaluation was used. This outcome measure was treated as a binary variable. […] The analysis was performed on the combined placebo, 10 mg and 30 mg biomarker population using the per protocol (PP) population. Explanatory variables for this analysis are the baseline measurements of all measured proteins, the treatment (placebo or pooled 10 mg/30 mg treatment) and the treatment-protein interaction. A logistic regression model was used as predictor.
For the 10 mg arm the response rate in the CFHR1-high group was 69% compared to 39% in the non-stratified group, and for the 30 mg arm the response rate in the CFHR1-high group was 67% compared to 45% in the non-stratified group. […]

[4] = 10 mg arm, non-stratified group
[5] = 30 mg arm, non-stratified group

## C[C@H](Oc1ccc(S(C)(=O)=O)cc1C(=O)N1CCN(c2ncc(C(F)(F)F)cc2F)CC1)C(F)(F)F [GRI, [4-(3-fluoro-5-trifluoromethyl-pyridin-2-yl)-piperazin-1-yl]-[5-methanesulfonyl-2-((S)-2,2,2-trifluoro-1-methyl-ethoxy)-phenyl]-methanone]
[1]; 10 mg arm, CFHR1-high group (serum CFHR1 >28 ug/ml), 8 weeks, vs placebo
  effect size, change in PANSS negative symptom factor score from baseline: −1.01
[1]; [4]
  effect size, change in PANSS negative symptom factor score from baseline: −0.42
[1]; 30 mg arm, CFHR1-high group (serum CFHR1 >28 ug/ml)
  effect size, change in PANSS negative symptom factor score from baseline: −0.76
[1]; [5]
  effect size, change in PANSS negative symptom factor score from baseline: −0.47
[2]; 10 mg arm, CFHR1-high group
  response rate, PANSS negative symptom factor score (at least 20% decrease from baseline): 88%
[2]; [4]
  response rate, PANSS negative symptom factor score (at least 20% decrease from baseline): 69%
[2]; 30 mg arm, CFHR1-high group
  response rate, PANSS negative symptom factor score (at least 20% decrease from baseline): 78%
[2]; [5]
  response rate, PANSS negative symptom factor score (at least 20% decrease from baseline): 66%
[3]; 10 mg arm, CFHR1+/+ group (genetic status)
  response rate, CGI of negative symptoms: 57%
[3]; 10 mg arm, CFHR1-high group (natural cut-off 28 ug/ml), week 8
  response rate, CGI of negative symptoms: 69%
[3]; 10 mg arm, H subgroup (CFHR1/CFH ratio above 0.08)
  response rate, CGI of negative symptoms: 69%
[3]; 10 mg arm, L group (CFHR1/CFH ratio below 0.01), small sample size
  response rate, CGI of negative symptoms: 0%
[3]; 10 mg arm, M subgroup (CFHR1/CFH ratio medium)
  response rate, CGI of negative symptoms: 19%
[3]; 10 mg arm, non-stratified group of patients who consented for DNA sample
  response rate, CGI of negative symptoms: 39%
[3]; 10 mg arm, non-stratified serum subgroup, week 8
  response rate, CGI of negative symptoms: 39%
[3]; 30 mg arm, CFHR1+/+ group (genetic status)
  response rate, CGI of negative symptoms: 67%
[3]; 30 mg arm, CFHR1-high group (natural cut-off 28 ug/ml), week 8
  response rate, CGI of negative symptoms: 67%
[3]; 30 mg arm, H subgroup (CFHR1/CFH ratio above 0.08)
  response rate, CGI of negative symptoms: 67%
[3]; 30 mg arm, L group (CFHR1/CFH ratio below 0.01), small sample size
  response rate, CGI of negative symptoms: 0%
[3]; 30 mg arm, M subgroup (CFHR1/CFH ratio medium)
  response rate, CGI of negative symptoms: 28%
[3]; 30 mg arm, non-stratified group of patients who consented for DNA sample
  response rate, CGI of negative symptoms: 46%
[3]; 30 mg arm, non-stratified serum subgroup, week 8
  response rate, CGI of negative symptoms: 45%
[3]; 60 mg arm, H subgroup (CFHR1/CFH ratio above 0.08)
  response rate, CGI of negative symptoms: 33%
[3]; 60 mg arm, L group (CFHR1/CFH ratio below 0.01), small sample size
  response rate, CGI of negative symptoms: 100%
[3]; 60 mg arm, M subgroup (CFHR1/CFH ratio medium)
  response rate, CGI of negative symptoms: 25%
[3]; 60 mg arm, non-stratified serum subgroup, week 8
  response rate, CGI of negative symptoms: 34%
